According to patent US20150209275A1, “Fast Dissolving Ocular Insert” (UNIVERSITY OF THE WITWATERSRAND, JOHANNESBURG, priority 2012, published 2015):
Values belong to the compound of their own block, whether it stands above or below them.

Tests used:
[1] = system: CAM; experiment: Modified Hen Egg Chorioallontoic (HET-CAM) ocular toxicity test; details: 0.3 mL sample on CAM, 5 minutes
Protocol: The methodology involved using hen's eggs (50-60 g fertile) that were purchased from a local hatchery (Bruce Hatcheries, South Africa) and less than a week old. The eggs were placed in commercial incubators (Surehatch, Brakenfell, South Africa) and rotated every 12 hours. On day 3, a hole was made and the albumin was removed. The eggs were sealed by sterile heated parafilm and left in an equatorial position. On day 5 and everyday thereafter eggs were candled for viability and non-viable ones were discarded. On day 10, a window (2×2 cm) was made and 2-3 mL saline (0.9% NaCl) was added and eggs were returned to the incubator. […] The eggs were then dosed with 0.3 mL of samples and observed for 5 minutes for any effects of injury in accordance with Table 11 and this was noted. Saline was used as a control for comparison purposes. Eggs were scored for severity of any reaction and time taken to occur (Table 11). At the end of the assay the embryos were discarded immediately by placing the eggs into a freezer −80° C. The following features were used for observation of injury: hemorrhage, vascular lysis and coagulation. FIG. 9 depicts the procedure for the test.
The period taken for any untoward reaction to occur was noted and the irritation threshold was determined ([…] concentration of samples required for a minimal reaction to occur). The irritation score was calculated by means of Equation 4.

[2] = system: Excised rabbit corneas; experiment: Ex vivo permeation, Franz diffusion cell; format: in vitro ADME; details: excised rabbit cornea
Protocol: Franz diffusion cell apparatus was used to conduct ex vivo permeation studies. Excised rabbit corneas (11.83±0.04 mm in diameter and area […]) were mounted on the Franz diffusion cell apparatus (Permagear, Arnie Systems, USA) connected to a heating bath system for temperature control. The diffusion cell donor chamber was filled with 2 mL Simulated tear (lacrimal) fluid (SLF) (Gonjari et al., 2009) (which was maintained to simulate tear volume). 12 mL Simulated Aqueous Humor (SAH, pH 7.4, 37° C.) (Giannola et al., 2007) solution was contained in the receptor chamber. The cornea was placed such that the surface was in contact with the receptor solution which was continuously stirred by a magnetic stirrer at 20 rpm to simulate blinking. […] Aliquots of sample were withdrawn from the receptor compartment at regular intervals (30, 60, 120, 180, 240 minutes and 24 hours after insertion) and replaced with an equal volume of dissolution medium. Samples were then subjected to the quantification of drug through spectrophotometric analysis at 295 nm (Hewlett Packard 8453 Spectrophotometer, Germany) to determine the drug release and flux (rate of drug permeation per unit area). Drug flux values were calculated at the steady state per unit area by regression analysis of permeation. Drug flux values were calculated employing Equation 7. […]

[3] = as an oral drug; cited from earlier work

Compound: CCCCCCCCCCCCOS(=O)(=O)[O-].[Na+] [SDS, Sodium Dodecyl Sulphate]
HET-CAM Inference [1]: Severe
IS (irritation score) ([1]; scale 0-21, mean of 3 values, Sulphate): 10.4
HET-CAM Score ([1]; score 0-3 per Table 11, mean of 3 values): 2.5

steady state drug flux ([2]; SLF donor, SAH pH 7.4, 37° C. receptor): 0.000378 mg.cm^−2.min^−1
Kp (permeability co-efficient) ([2]; mean of 3 values): 2 ×10⁻⁶ cm/s
Compound: Timolol maleate salt [Pure drug dispersion]

Compound: CC(C)(C)NC[C@H](O)COc1nsnc1N1CCOCC1 [timolol]
BCS class [3]: class 1
